Measured values taken from paper PMC5516258, “A Nonredundant Phosphopantetheinyl Transferase, PptA, Is a Novel Antifungal Target That Directs Secondary Metabolite, Siderophore, and Lysine Biosynthesis in Aspergillus fumigatus and Is Critical for Pathogenicity” (mBio, 2017).
Read-outs that look alike come from different tables or passages of the source.

Assays:
HS-PPTase (AASDHPPT) = target: T1, HS-PPTase (AASDHPPT) (Homo sapiens, UniProt Q9NRN7); assay: fluorescence polarization, transfer of BODIPY-TMR-labelled phosphopantetheine from CoA to human ACP domain; type: biochemical; conditions: read-out: no inhibition at concentrations up to 200 μM
T1 construct: cDNA cloned into pET43.1, E. coli BL21(DE3), Ni-NTA purified
T1 sequence (Q9NRN7 1-309): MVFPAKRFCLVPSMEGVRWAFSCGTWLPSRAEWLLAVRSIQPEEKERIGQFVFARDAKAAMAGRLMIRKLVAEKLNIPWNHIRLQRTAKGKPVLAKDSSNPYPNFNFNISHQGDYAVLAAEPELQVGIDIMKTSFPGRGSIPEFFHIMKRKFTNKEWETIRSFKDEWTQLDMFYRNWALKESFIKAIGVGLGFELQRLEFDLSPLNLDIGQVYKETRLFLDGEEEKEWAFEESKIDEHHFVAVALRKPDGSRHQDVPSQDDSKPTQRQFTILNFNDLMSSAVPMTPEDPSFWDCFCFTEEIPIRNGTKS

[1] = target: T2, PptA (AFPptA; AFPptA-GST) (Aspergillus fumigatus, UniProt B0XWE4); assay: fluorescence polarization, transfer of BODIPY-TMR-labelled phosphopantetheine from CoA to AarA; type: biochemical
T2 construct: gene AFUB_024520
T2 sequence (B0XWE4 entry or part of it): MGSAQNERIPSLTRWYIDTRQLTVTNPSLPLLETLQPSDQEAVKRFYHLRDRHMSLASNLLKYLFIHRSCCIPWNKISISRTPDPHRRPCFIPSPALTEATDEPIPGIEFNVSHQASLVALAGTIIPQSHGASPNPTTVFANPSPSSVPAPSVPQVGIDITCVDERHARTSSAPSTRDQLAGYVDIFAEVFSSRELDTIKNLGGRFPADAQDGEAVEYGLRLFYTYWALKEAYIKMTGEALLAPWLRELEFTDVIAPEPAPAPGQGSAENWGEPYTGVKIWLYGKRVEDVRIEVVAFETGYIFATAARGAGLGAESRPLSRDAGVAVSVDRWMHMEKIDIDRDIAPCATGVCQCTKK

| Structure (SMILES) | IC50 (HS-PPTase (AASDHPPT)) | IC50 [1] | IC50 ([1]; acceptor A. fumigatus AarA 750 ng, BODIPY-TMR-CoA, 62.5 mM bis-Tris pH 6.5, 12.5 mM Mg chloride, room temperature, 100 ng PptA, triplicate, doubling dilutions from 100 µM) |
| --- | --- | --- | --- |
| O=Nc1ccc2oc(=O)ccc2c1 [6-nitroso-1,2-benzopyrone] | > 200 µM | 35.2 µM | – |
| Clc1ccc(C(c2ccc(Cl)cc2)n2cc[n+](CC(OCc3ccc(Cl)cc3Cl)c3ccc(Cl)cc3Cl)c2)cc1 (stereo not shown) [calmidazolium chloride] | – | – | 19.2 µM |
| N=C1Sc2ccccc2C2=NCCCN12 [PD 404,182] | – | 3.9 µM | – |
